Measurements: PMC9103699, “Myoglobin Interaction with Lactate Rapidly Releases Oxygen: Studies on Binding Thermodynamics, Spectroscopy, and Oxygen Kinetics” (International Journal of Molecular Sciences, 2022)
“Also recorded” adds a separate entry of the source.

Key:
[1] = biological target: T1, equine oxy-Mb (Equus caballus, UniProt P68082); assay: ITC binding of lactate to oxy-Mb; settings: for Kd: n = 5; for c value: c = nKa[M]t; for ΔS°: from ΔG = ΔH − TΔS
T1 construct: Horse heart muscle myoglobin (Mb), chicken egg white lysozyme, sodium lactate (LAC), and sodium dithionite were purchased from Sigma Aldrich; purchased Sigma Aldrich, St. Louis, MO, USA; host or cells: horse heart muscle
Experimental: (§1) Preparations enriched in oxygenated and deoxygenated forms of Mb were prepared as described by our earlier publication related to Mb interaction with fatty acids and acylcarnitines. Briefly, 500 µM of Mb was dissolved in 50 mM sodium phosphate buffer of desired test pH. To promote conversion of ferric (Fe^3+) to ferrous (Fe^2+) iron, 3 mM of sodium dithionite was added to the protein solution with gentle mixing. Thereafter, the solution was subjected to a desalting column to remove the reducing agent and to remove the interference, particularly in O2 release kinetics and UV-Vis spectroscopy absorbance peaks. […] Thereafter, purging the protein solution enriched in oxy- and deoxy-Mb with either O2 or N2 gas, respectively, was performed continuously for 10 min. Formation of oxy- and deoxy-Mb were confirmed based on their characteristic peaks using UV-visible spectroscopy. All the experiments were performed in three different pH conditions (7.0, 6.4, and 6.0), mimicking intracellular physiological and acidic pH states that would be typically observed in skeletal muscle cells in “rested” and “active” (hyperlactatemia) conditions.
(§2) Protein-ligand binding experiments were performed using isothermal titration calorimetry (ITC) (Microcal PEAQ-ITC, Malvern, Chester County, PA, USA). Before starting the experiment, both the ligand solution and the protein solution were purged with either O2 or N2 for 10 min. Both the protein and LAC solutions were thermally equilibrated to 25 °C prior to the start of the titration. LAC was loaded in the […] at an initial concentration of 50 µM and titrated against 500 µM of either oxy- or deoxy-Mb solution, maintaining a 1:10 ratio between ligand and protein. To obtain the working c-value between 10 ≤ c ≤ 500 [51], different protein to ligand molar ratios (1:2, 1:5, 1:10, and 1:20) were tested, and based on the c-value, the molar ratio of 1:10 was selected for all ITC binding studies. A total of 19 injections (2 µL each) from the syringe were used to generate the ITC curves within each experiment. During the experimental run, the samples were mixed thoroughly at a constant stirring rate of 750 rpm. Between each injection, a 150 s gap was maintained to achieve a stable baseline. Data obtained from the ITC experiments were best fit to a one set of binding sites model provided by Microcal PEAQ-ITC software (version 1.40). Heats of dilution and heats caused by potential products formed during the course of the ITC experiments were corrected by performing appropriate blank titrations, consisting of (a) either oxy- or deoxy-Mb in the test buffer solution, (b) test buffer in the LAC, and (c) buffer-buffer solution. Lysozyme was used as a negative control protein in the protein-ligand binding experiments. All the binding experiments were performed 5 times (n = 5) and data obtained from statistical analysis are presented here.
(§3) The change in entropy (ΔS) was calculated using the equation: ΔG = ΔH − TΔS(1) where ΔG represents the change in Gibbs free energy, ΔH is the change in enthalpy, and T is the absolute temperature.
(§4) c values were calculated using the equation:c = nKa[M]t(2) where n is the number of binding sites per receptor (macromolecule), [M]t is macromolecule concentration, and Ka is the association constant.

[2] = biological target: T2, equine deoxy-Mb (Equus caballus, UniProt P68082); assay: ITC binding of lactate to deoxy-Mb; settings: for Kd: n = 5; for c value: c = nKa[M]t; for ΔS°: from ΔG = ΔH − TΔS
T2 construct: Horse heart muscle myoglobin (Mb), chicken egg white lysozyme, sodium lactate (LAC), and sodium dithionite were purchased from Sigma Aldrich; purchased Sigma Aldrich, St. Louis, MO, USA; host or cells: horse heart muscle
Experimental: as §1, §2, §3, §4

[3] = biological target: T3, chicken egg white lysozyme (Gallus gallus, UniProt P00698); assay: ITC binding of LAC to negative control protein lysozyme; settings: all tested pH conditions (pH 7.0, 6.4, 6.0)
T3 construct: Horse heart muscle myoglobin (Mb), chicken egg white lysozyme, sodium lactate (LAC), and sodium dithionite were purchased from Sigma Aldrich; purchased Sigma Aldrich, St. Louis, MO, USA; host or cells: chicken egg white
Experimental: Horse heart muscle myoglobin (Mb), chicken egg white lysozyme, sodium lactate (LAC), and sodium dithionite were purchased from Sigma Aldrich, St. Louis, MO, USA. All other chemicals used in the experiments are of analytical grade and were also procured from Sigma Aldrich, St. Louis, MO, USA.
Protein-ligand binding experiments were performed using isothermal titration calorimetry (ITC) (Microcal PEAQ-ITC, Malvern, Chester County, PA, USA). Before starting the experiment, both the ligand solution and the protein solution were purged with either O2 or N2 for 10 min. Both the protein and LAC solutions were thermally equilibrated to 25 °C prior to the start of the titration. LAC was loaded in the […] at an initial concentration of 50 µM and titrated against 500 µM of either oxy- or deoxy-Mb solution, maintaining a 1:10 ratio between ligand and protein. To obtain the working c-value between 10 ≤ c ≤ 500 [51], different protein to ligand molar ratios (1:2, 1:5, 1:10, and 1:20) were tested, and based on the c-value, the molar ratio of 1:10 was selected for all ITC binding studies. A total of 19 injections (2 µL each) from the syringe were used to generate the ITC curves within each experiment. During the experimental run, the samples were mixed thoroughly at a constant stirring rate of 750 rpm. Between each injection, a 150 s gap was maintained to achieve a stable baseline. […]

[4] = biological target: T1, equine oxy-Mb; assay: O2 release kinetics from oxy-Mb (Oxytherm+ respirometer); format: biochemical
Experimental: Figure 4 Effect of lactate binding to oxy-Mb and O2 release kinetics. Oxygen kinetics is studied using Oxytherm+ respirometer. All experiments were performed with 50 mM sodium phosphate buffer (pH 7.0, pH 6.4, and pH 6.0) containing 150 µM equine oxy-Mb and varying concentrations of lactate (0.625 mM to 2.5 mM) and oxy-Mb alone as a control. (a) A representative graph showing addition of lactate eliciting a rapid release of O2 from oxy-Mb at pH 6.4. Arrows in the figure indicate the point of addition of oxy-Mb and LAC into buffer during the run. (b) Rate of release of O2 from Mb against lactate concentrations with buffers (pH 7.0, pH 6.4, and pH 6.0). […] All O2 kinetic experiments were repeated 3 times (n = 3). Statistical analysis was performed using one-way ANOVA and the Tukey–Kramer post hoc test. […] Among all the test groups, only statistically […] groups are shown with horizontal lines and two asterisks.
The O2 concentrations (release and binding) during the ligand interactions with Mb in the solution were measured using Oxytherm+ liquid-phase oxygen electrode system (Hansatech Instruments, Norfolk, UK). The Oxytherm+ respirometer is an advanced instrument routinely used for respiration studies.
The measurement of dissolved O2 is calculated at the given temperature and atmospheric pressure according to the following equation [64]: Cs = 14.16 − (0.394 × T) + (0.007714 × T^2) − (0.0000646 × […])(3) where Cs is the saturated O2 concentration in ppm and T is the temperature in °C.
1 ppm is equivalent to 1 µg/mL or (1 µg/32 g/mol) = 0.03125 µmol/mL or 31.25 nmol/mL.
Similarly, deoxy-Mb protein alone (i.e., without LAC) was also tested. All the experiments were carried out at a constant temperature of 25 °C using a Peltier thermostat. The solutions were mixed at 50 rpm using a small magnetic stirring bar placed inside the sample container. Samples were injected into the buffer solution (50 mM sodium phosphate) at varying pH levels (pH 6.0–7.0) using a Hamilton glass syringe (1cc) after achieving equilibrium. Ligand was added to the Mb protein. Appropriate buffer controls voiding either Mb or LAC were used to nullify any artefacts. O2 kinetic experiments were also performed. All the kinetic experiments were performed 3 times (n = 3) and data obtained from statistical analysis are presented here.

[5] = biological target: T4, oxy-Mb (Equus caballus, UniProt P68082); assay: Time-resolved UV-Vis spectroscopy of LAC-incubated oxy-Mb; design: species or system horse; settings: all the test pH conditions
T4 construct: Horse heart muscle myoglobin (Mb), chicken egg white lysozyme, sodium lactate (LAC), and sodium dithionite were purchased from Sigma Aldrich; purchased Sigma Aldrich, St. Louis, MO, USA; host or cells: horse heart muscle
Experimental: (§5) The change in the spectral characteristics of Mb alone and LAC-bound Mb were recorded using UV-Vis spectroscopy (Polarstar Omega, BMG Labtech, ortenberg, Germany). All the sample preparations and the concentrations used were similar to the ITC experiments. After degassing Mb and LAC samples either with O2 or N2 gas in sealed vials, appropriate volumes of the samples were collected using a Hamilton glass syringe (1cc), mixed in a glass cuvette, and sealed immediately; time-resolved spectra were recorded immediately at 25 °C for a period of 75 min. All spectral data were collected at 5 min time intervals. All the spectral experiments were performed 3 times (n = 3).

[6] = biological target: T5, deoxy-Mb (Equus caballus, UniProt P68082); assay: Time-resolved UV-Vis spectroscopy of LAC-incubated deoxy-Mb; design: species or system horse; settings: data not shown
T5 construct: Horse heart muscle myoglobin (Mb), chicken egg white lysozyme, sodium lactate (LAC), and sodium dithionite were purchased from Sigma Aldrich; purchased Sigma Aldrich, St. Louis, MO, USA; host or cells: horse heart muscle
Experimental: as §5

[7] = biological target: oxy-Mb; design: method as in PMID 8663546; settings: pH 6.5, spectrophotometric, tonometry; cited from earlier work
[8] = biological target: deoxy-Mb; design: method as in PMID 8663546; settings: pH 6.5, spectrophotometric, tonometry; cited from earlier work
[9] = pH 6.4, 25 °C, listed as lactate

T1 sequence (P68082 whole entry): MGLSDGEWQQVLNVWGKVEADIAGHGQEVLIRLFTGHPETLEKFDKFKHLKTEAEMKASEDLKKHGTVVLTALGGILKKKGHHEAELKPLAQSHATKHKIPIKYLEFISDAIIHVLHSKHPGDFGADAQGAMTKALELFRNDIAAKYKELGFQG
T2 sequence (P68082 whole entry): as above
T3 sequence (P00698 19-147): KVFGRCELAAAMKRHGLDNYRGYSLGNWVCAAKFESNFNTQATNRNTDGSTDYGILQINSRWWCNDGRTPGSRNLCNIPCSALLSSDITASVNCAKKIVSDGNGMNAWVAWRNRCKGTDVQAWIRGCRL
T4 sequence (P68082 whole entry): as the sequence (P68082 whole entry) above
T5 sequence (P68082 whole entry): as above

CC(O)C(=O)[O-].[Na+] (stereo not drawn) [LAC, sodium lactate]
No. of binding sites ([1]; pH 6.0): 1.0 ± 0.06 ^a2 | ΔH° ([1]; pH 6.0): 34 ± 3.5 ^c2 kcal mol^−1 | Kd ([1]; pH 6.0, 25 °C): 1.9 ± 0.2 µM | ΔG ([1]; pH 6.0, printed as Mb+LAC complex): -7.8 kcal/mol | c value ([1]; pH 6.0): 267.9 ± 30.4 ^d2 | ΔS° ([1]; pH 6.0): 0.14 ± 0.01 ^c2 cal mol^−1 K^−1 | No. of binding sites ([1]; pH 6.4): 0.8 ± 0.03 ^a1 | ΔH° ([1]; pH 6.4): 151.5 ± 18.5 ^b1 kcal mol^−1 | Kd ([1]; pH 6.4, 25 °C): ~7 µM | Kd [1, 9]: 6.9 ± 1.1 µM | ΔG ([1]; pH 6.4, oxy-Mb+LAC complex): -6.9 kcal/mol | c value ([1]; pH 6.4): 67.5 ± 15.5 ^b1 | ΔS° ([1]; pH 6.4): 0.5 ± 0.06 ^b1 cal mol^−1 K^−1 | Ka ([1]; pH 7.0): 0.05 µM⁻¹ | No. of binding sites ([1]; pH 7.0): 0.9 ± 0.7 ^b* | ΔG ([1]; pH 7.0): -6.2 kcal/mol | ΔH° ([1]; pH 7.0): −53.1 ± 0.3 ^a* kcal mol^−1 | Kd ([1]; pH 7.0, 25 °C): 20.7 ± 2.7 µM | c value ([1]; pH 7.0): 22.4 ± 1.4 ^a | ΔS° ([1]; pH 7.0): −0.15 ± 0.01 ^a* cal mol^−1 K^−1 | increase of Ka with drop in pH ([1]; pH 7.0 to pH 6.0): ~ 3 fold | No. of binding sites ([2]; pH 6.0): 0.8 ± 0.02 ^a2 | ΔH° ([2]; pH 6.0): 12.6 ± 0.4 ^d3 kcal mol^−1 | Kd ([2]; pH 6.0, 25 °C): 6.4 ± 0.2 µM | c value ([2]; pH 6.0): 61.2 ± 0.9 ^b1 | ΔS° ([2]; pH 6.0): 0.1 ± 0.0 ^d3 cal mol^−1 K^−1 | No. of binding sites ([2]; pH 6.4): 0.8 ± 0.03 ^a1 | ΔH° ([2]; pH 6.4): 149.5 ± 13.0 ^b1 kcal mol^−1 | Kd ([2]; pH 6.4, 25 °C): ~14 µM | Kd [2, 9]: 13.7 ± 1.6 µM | c value ([2]; pH 6.4): 30.4 ± 4.6 ^c1 | ΔS° ([2]; pH 6.4): 0.55 ± 0.03 ^b1 cal mol^−1 K^−1 | Ka at pH 6.4 relative to pH 6.0 ([2]; pH 6.4 vs pH 6.0): ~ 2 fold | binding of LAC (ITC) ([2]; pH 7.0): No detectable binding | No. of binding sites ([2]; pH 7.0, NDB: no detectable binding): NDB | binding of LAC (ITC) [3]: no detectable binding; also recorded: did not bound | O2 release compared to oxy-Mb alone ([4]; 0.625 mM LAC, pH 6.0): no significance difference | maximum rate of O2 release ([4]; 2.5 mM LAC, pH 6.4 buffer, 25 °C): 72 nmol/min/g protein | O2 release rate constant ([4]; pH 6.0): 0.04 mM LAC/nM O2 release | O2 release rate constant ([4]; pH 6.4): 0.029 mM LAC/nM O2 release | O2 release rate constant ([4]; pH 7.0): 0.537 mM LAC/nM O2 release | change in UV-Vis spectral data [5]: no change in spectral data | change in UV-Vis spectral data [6]: marginal changes in the heme peak absorbance (435 nm) | Kd [7]: 26000 µM | Kd [8]: 2500 µM
